Reference: patent US10457707B2, “Substituted urea depsipeptide analogs as activators of the CLPP endopeptidase” (priority 2015, dated 2019)
≈ marks a conversion by molar mass, not a printed value. Where two headings read alike, the source gives them in different places. *1 amine or outer side, *2 acyl side, *3 side chain or, on linkers, in order; H or OH if unused. Where a SMILES comes first, the peptide text is derived from it. Bridges are numbered along the chain shown (N, C = ends). [ ]: non-standard residue; d: D form. The star is where a group is joined. NH(1,3-benzodioxol-5-yl) = c1cc2c(cc1N*)OCO2; Phe(3,5-F2) = N[C@@H](Cc1cc(F)cc(F)c1)C(=O)O; NH(1-Me-indolin-5-yl) = CN1CCc2cc(N*)ccc21; NH(4-OCF3-phenyl) = FC(F)(F)Oc1ccc(N*)cc1; Morpholine(3S-CO) = O=C(O)[C@@H]1COCCN1; Pro(4S-Me) = C[C@@H]1CN[C@H](C(=O)O)C1; NH(4-Cl-2-F-phenyl) = Fc1cc(Cl)ccc1N*; Pro(4R-Me) = C[C@H]1CN[C@H](C(=O)O)C1; Hyp = O=C(O)[C@@H]1C[C@@H](O)CN1; NMeT = CN[C@H](C(=O)O)[C@@H](C)O; Heptenoyl(2E) = CCCC/C=C/C(=O)*; NH(4-Me-phenyl) = Cc1ccc(N*)cc1; aThr = C[C@H](O)[C@H](N)C(=O)O; Pip = O=C(O)[C@@H]1CCCCN1; X4 = c1cc2c(cc1N*)CCC2; X8 = c1cc2c(cc1N*)CCO2; X6 = Cc1cc(C)cc(N*)c1; CO = O=C([*:1])[*:2]; X7 = CC/C=C/C(=O)*

Columns and labels:
Experiment in all cases: Minimal inhibitory concentration assay (microbroth dilution)
Assay type in all cases: cell-based
[1] = tested on: Staphylococcus aureus, NRS70
How it was run: (§1)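 Broth microdilution per CLSI M7-A7: two-fold serial dilutions of compound in broth (top final concentration 200 μM) were inoculated with ~10^5 cfu/mL bacteria and incubated aerobically overnight at 37 °C. MIC was read visually as the lowest concentration preventing growth.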

[2] = tested on: Staphylococcus aureus, ATCC 29213; settings: ATCC29213, read-out: Minimal Inhibitory Concentrations S. aureus ATCC 29213
How it was run: as §1

[3] = tested on: Bacillus subtilis, ATCC 23857
How it was run: as §1

[4] = Staphylococcus aureus, NRS70; read-out: Minimal Inhibitory Concentrations S. aureus NRS70
[5] = Bacillus subtilis, ATCC23857; read-out: Minimal Inhibitory Concentrations B. subtilis ATCC 23857
[6] = Staphylococcus aureus, NRS70, read-out: Minimal Inhibitory Concentrations S. aureus NRS70
[7] = Bacillus subtilis, ATCC23857, read-out: Minimal Inhibitory Concentrations B. subtilis ATCC 23857

C[C@H]1C[C@H]2C(=O)O[C@@H](C)[C@H](NC(=O)[C@H](Cc3cc(F)cc(F)c3)NC(=O)Nc3ccc(OC(F)(F)F)cc3)C(=O)N3CCC[C@H]3C(=O)N3CCOC[C@H]3C(=O)N[C@@H](C)C(=O)N2C1 [Compound 201, (S)-3-(3,5-difluorophenyl)-2-(3-(4-(trifluoromethoxy)phenyl)ureido)-N-((6aS,12S,13S,15aS,17S,21S,23aS)-13,17,21-trimethyl-6,11,15,20,23-pentaoxooctadecahydro-6H,11H,15H-[1,4]oxazino[3,4-i]dipyrrolo[2,1-c:2′,1′-l][1]oxa[4,7,10,13]tetraazacyclohexadecin-12-yl)propanamide] ({NH(4-OCF3-phenyl)-CO}-[Phe(3,5-F2)][aThr]P[Morpholine(3S-CO)]A[Pro(4S-Me)]; ester 2-C)
MIC [1, 4]: 0.024 µM (≈ 0.0211 µg/mL) | MIC [2]: 0.049 µM (≈ 0.0431 µg/mL) | MIC [3, 5]: 0.024 µM (≈ 0.0211 µg/mL)

CC/C=C/C(=O)N[C@@H](Cc1cc(F)cc(F)c1)C(=O)N[C@@H]1C(=O)N2C[C@H](O)C[C@H]2C(=O)N2CCCC[C@H]2C(=O)N[C@@H](C)C(=O)N2C[C@H](C)C[C@H]2C(=O)O[C@H]1C [Compound 300] (X7-[Phe(3,5-F2)][aThr][Hyp][Pip]A[Pro(4R-Me)]; ester 2-C)
MIC [1, 6]: 2.5 µM (≈ 1.93 µg/mL) | MIC [2]: 1.9 µM (≈ 1.47 µg/mL)

CCCC/C=C/C(=O)N[C@@H](Cc1cc(F)cc(F)c1)C(=O)N[C@@H]1C(=O)N2C[C@H](O)C[C@H]2C(=O)N2CCCC[C@H]2C(=O)N[C@@H](C)C(=O)N2C[C@H](C)C[C@H]2C(=O)O[C@H]1C [Compound 301, (E)-N—((S)-3-(3,5-difluorophenyl)-1-(((2R,6S,8aS,14aS,16R,20S,21S,23aS)-16-hydroxy-2,6,21-trimethyl-5,8,14,19,23-pentaoxooctadecahydro-1H,5H,14H,19H-pyrido[2,1-i]dipyrrolo[2,1-c:2′,1′-l][1]oxa[4,7,10,13]tetraazacyclohexadecin-20-yl)amino)-1-oxopropan-2-yl)hept-2-enamide] ({Heptenoyl(2E)}-[Phe(3,5-F2)][aThr][Hyp][Pip]A[Pro(4R-Me)]; ester 2-C)
MIC [1, 6]: 0.079 µM (≈ 0.0633 µg/mL) | MIC [2]: 0.079 µM (≈ 0.0633 µg/mL)

C[C@@H]1C[C@H]2C(=O)O[C@@H](C)[C@H](NC(=O)[C@H](Cc3cc(F)cc(F)c3)NC(=O)Nc3ccc4c(c3)CCC4)C(=O)N3CCC[C@H]3C(=O)N3CCCC[C@H]3C(=O)N[C@@H](C)C(=O)N2C1 [Compound 302, (S)-3-(3,5-difluorophenyl)-2-(3-(2,3-dihydro-1H-INDEN-5-yl)ureido)-N-((2R,6S,8aS,14aS,20S,21S,23aS)-2,6,21-trimethyl-5,8,14,19,23-pentaoxooctadecahydro-1H,5H,14H,19H-pyrido[2,1-i]dipyrrolo[2,1-c:2′,1′-l][1]oxa[4,7,10,13]tetraazacyclohexadecin-20-yl)propanamide] ({X4-CO}-[Phe(3,5-F2)][aThr]P[Pip]A[Pro(4R-Me)]; ester 2-C)
MIC [1, 6]: 0.039 µM (≈ 0.0325 µg/mL) | MIC [2]: 0.059 µM (≈ 0.0492 µg/mL)

Cc1cc(C)cc(NC(=O)N[C@@H](Cc2cc(F)cc(F)c2)C(=O)N[C@@H]2C(=O)N3CCC[C@H]3C(=O)N3CCCC[C@H]3C(=O)N[C@@H](C)C(=O)N3C[C@H](C)C[C@H]3C(=O)O[C@H]2C)c1 [Compound 304, (S)-3-(3,5-difluorophenyl)-2-(3-(3,5-dimethylphenyl)ureido)-N-((2R,6S,8aS,14aS,20S,21S,23aS)-2,6,21-trimethyl-5,8,14,19,23-pentaoxooctadecahydro-1H,5H,14H,19H-pyrido[2,1-i]dipyrrolo[2,1-c:2′,1′-l][1]oxa[4,7,10,13]tetraazacyclo-hexadecin-20-yl)propanamide] ({X6-CO}-[Phe(3,5-F2)][aThr]P[Pip]A[Pro(4R-Me)]; ester 2-C)
MIC [1, 4]: 0.059 µM (≈ 0.0485 µg/mL) | MIC [2]: 0.079 µM (≈ 0.0649 µg/mL)

C[C@@H]1C[C@H]2C(=O)O[C@@H](C)[C@H](NC(=O)[C@H](Cc3cc(F)cc(F)c3)NC(=O)Nc3ccc4c(c3)CCO4)C(=O)N3CCC[C@H]3C(=O)N3CCCC[C@H]3C(=O)N[C@@H](C)C(=O)N2C1 [Compound 305, (S)-3-(3,5-difluorophenyl)-2-(3-(2,3-dihydrobenzofuran-5-yl)ureido)-N-((2R,6S,8aS,14aS,20S,21S,23aS)-2,6,21-trimethyl-5,8,14,19,23-pentaoxooctadecahydro-1H,5H,14H,19H-pyrido[2,1-i]dipyrrolo[2,1-c:2′,1′-l][1]oxa[4,7,10,13]tetraazacyclo-hexadecin-20-yl)propanamide] ({X8-CO}-[Phe(3,5-F2)][aThr]P[Pip]A[Pro(4R-Me)]; ester 2-C)
MIC [1, 6]: 0.24 µM (≈ 0.201 µg/mL) | MIC [2]: 0.24 µM (≈ 0.201 µg/mL)

C[C@@H]1C[C@H]2C(=O)O[C@@H](C)[C@H](NC(=O)[C@H](Cc3cc(F)cc(F)c3)NC(=O)Nc3ccc(Cl)cc3F)C(=O)N3CCC[C@H]3C(=O)N3CCCC[C@H]3C(=O)N[C@@H](C)C(=O)N2C1 [Compound 307, (S)-2-(3-(4-chloro-2-fluorophenyl)ureido)-3-(3,5-difluorophenyl)-N-((2R,6S,8aS,14aS,20S,21S,23aS)-2,6,21-trimethyl-5,8,14,19,23-pentaoxooctadecahydro-1H,5H,14H,19H-pyrido[2,1-i]dipyrrolo[2,1-c:2′,1′-l][1]oxa[4,7,10,13]tetraazacyclo-hexadecin-20-yl)propanamide] ({NH(4-Cl-2-F-phenyl)-CO}-[Phe(3,5-F2)][aThr]P[Pip]A[Pro(4R-Me)]; ester 2-C)
MIC [1, 4]: 0.039 µM (≈ 0.033 µg/mL) | MIC [2]: 0.039 µM (≈ 0.033 µg/mL) | MIC [3, 5]: 0.039 µM (≈ 0.033 µg/mL)

CCCC/C=C/C(=O)N[C@@H](Cc1cc(F)cc(F)c1)C(=O)N[C@@H]1C(=O)N2CCC[C@H]2C(=O)N(C)[C@@H]([C@@H](C)O)C(=O)N[C@@H](C)C(=O)N2C[C@H](C)C[C@H]2C(=O)O[C@H]1C [Compound 308, (E)-N—((S)-3-(3,5-difluorophenyl)-1-(((2R,6S,9S,11aS,17S,18S,20aS)-9-((R)-1-hydroxyethyl)-2,6,10,18-tetramethyl-5,8,11,16,20-pentaoxohexadecahydro-1H,5H,16H-dipyrrolo[2,1-c:2′,1′-l][1]oxa[4,7,10,13]tetraazacyclohexadecin-17-yl)amino)-1-oxopropan-2-yl)hept-2-enamide] ({Heptenoyl(2E)}-[Phe(3,5-F2)][aThr]P[NMeT]A[Pro(4R-Me)]; ester 2-C)
MIC [1, 4]: 0.039 µM (≈ 0.0308 µg/mL) | MIC [2]: 0.039 µM (≈ 0.0308 µg/mL) | MIC [3, 5]: < 0.02 µM

CCCC/C=C/C(=O)N[C@@H](Cc1cc(F)cc(F)c1)C(=O)N[C@@H]1C(=O)N2C[C@H](O)C[C@H]2C(=O)N2CCOC[C@H]2C(=O)N[C@@H](C)C(=O)N2C[C@H](C)C[C@H]2C(=O)O[C@H]1C [Compound 309, (E)-N—((S)-3-(3,5-difluorophenyl)-1-(((6aS,8R,12S,13S,15aS,17R,21S,23aS)-8-hydroxy-13,17,21-trimethyl-6,11,15,20,23-pentaoxooctadecahydro-6H,11H,15H-[1,4]oxazino[3,4-i]dipyrrolo[2,1-c:2′,1′-l][1]oxa[4,7,10,13]tetraazacyclohexadecin-12-yl)amino)-1-oxopropan-2-yl)hept-2-enamide] ({Heptenoyl(2E)}-[Phe(3,5-F2)][aThr][Hyp][Morpholine(3S-CO)]A[Pro(4R-Me)]; ester 2-C)
MIC [1, 4]: 0.156 µM (≈ 0.125 µg/mL) | MIC [2]: 0.156 µM (≈ 0.125 µg/mL) | MIC [3, 5]: 0.156 µM (≈ 0.125 µg/mL)

C[C@@H]1C[C@H]2C(=O)O[C@@H](C)[C@H](NC(=O)[C@H](Cc3cc(F)cc(F)c3)NC(=O)Nc3ccc4c(c3)CCN4C)C(=O)N3CCC[C@H]3C(=O)N3CCCC[C@H]3C(=O)N[C@@H](C)C(=O)N2C1 [Compound 310, (S)-3-(3,5-difluorophenyl)-2-(3-(1-methylindolin-5-yl)ureido)-N-((2R,6S,8aS,14aS,20S,21S,23aS)-2,6,21-trimethyl-5,8,14,19,23-pentaoxooctadecahydro-1H,5H,14H,19H-pyrido[2,1-i]dipyrrolo[2,1-c:2′,1′-l][1]oxa[4,7,10,13]tetraazacyclo-hexadecin-20-yl)propanamide] ({NH(1-Me-indolin-5-yl)-CO}-[Phe(3,5-F2)][aThr]P[Pip]A[Pro(4R-Me)]; ester 2-C)
MIC [1, 6]: 0.156 µM (≈ 0.132 µg/mL) | MIC [2]: 0.078 µM (≈ 0.0662 µg/mL) | MIC [3, 7]: 0.078 µM (≈ 0.0662 µg/mL)

Cc1ccc(NC(=O)N[C@@H](Cc2cc(F)cc(F)c2)C(=O)N[C@H]2COC(=O)[C@@H]3C[C@@H](C)CN3C(=O)[C@H](C)NC(=O)[C@@H]3COCCN3C(=O)[C@@H]3C[C@@H](O)CN3C2=O)cc1 [Compound 317, (S)-3-(3,5-difluorophenyl)-N-((6aS,8R,12S,15aS,17R,21S,23aS)-8-hydroxy-17,21-dimethyl-6,11,15,20,23-pentaoxooctadecahydro-6H,11H,15H-[1,4]oxazino[3,4-i]dipyrrolo[2,1-c:2′,1′-l][1]oxa[4,7,10,13]tetraazacyclohexadecin-12-yl)-2-(3-(p-tolyl)ureido)propanamide] ({NH(4-Me-phenyl)-CO}-[Phe(3,5-F2)]S[Hyp][Morpholine(3S-CO)]A[Pro(4R-Me)]; ester 2-C)
MIC [1, 6]: 2.5 µM (≈ 2.03 µg/mL) | MIC [2]: 2.5 µM (≈ 2.03 µg/mL) | MIC [3, 7]: 10 µM (≈ 8.12 µg/mL)

C[C@@H]1C[C@H]2C(=O)OC[C@H](NC(=O)[C@H](Cc3cc(F)cc(F)c3)NC(=O)Nc3ccc4c(c3)OCO4)C(=O)N3C[C@H](O)C[C@H]3C(=O)N3CCOC[C@H]3C(=O)N[C@@H](C)C(=O)N2C1 [Compound 318, (S)-2-(3-(benzo[d][1,3]dioxol-5-yl)ureido)-3-(3,5-difluorophenyl)-N-((6aS,8R,12S,15aS,17R,21S,23aS)-8-hydroxy-17,21-dimethyl-6,11,15,20,23-pentaoxooctadecahydro-6H,11H,15H-[1,4]oxazino[3,4-i]dipyrrolo[2,1-c:2′,1′-l][1]oxa[4,7,10,13]tetraazacyclo-hexadecin-12-yl)propanamide] ({NH(1,3-benzodioxol-5-yl)-CO}-[Phe(3,5-F2)]S[Hyp][Morpholine(3S-CO)]A[Pro(4R-Me)]; ester 2-C)
MIC [1, 4]: 20 µM (≈ 16.8 µg/mL) | MIC [2]: 20 µM (≈ 16.8 µg/mL) | MIC [3, 5]: > 20 µM
